Test results reported in patent US5723103A, “Substituted benzamides and radioligand analogs and methods of use” (Vanderbilt University, priority 1994, dated 1998).
Read-outs that look alike come from different tables or passages of the source.

What was measured:
[1] = test system: 5-HT-3 receptor; settings: literature, cited from earlier work
[2] = test system: animal behavioral models; settings: literature; cited from earlier work
[3] = test system: drug-induced anxiety; settings: literature; cited from earlier work
[4] = biological target: T1, 5-HT-3 receptor (Rattus norvegicus, UniProt P35563)
T1 sequence (P35563 24-483): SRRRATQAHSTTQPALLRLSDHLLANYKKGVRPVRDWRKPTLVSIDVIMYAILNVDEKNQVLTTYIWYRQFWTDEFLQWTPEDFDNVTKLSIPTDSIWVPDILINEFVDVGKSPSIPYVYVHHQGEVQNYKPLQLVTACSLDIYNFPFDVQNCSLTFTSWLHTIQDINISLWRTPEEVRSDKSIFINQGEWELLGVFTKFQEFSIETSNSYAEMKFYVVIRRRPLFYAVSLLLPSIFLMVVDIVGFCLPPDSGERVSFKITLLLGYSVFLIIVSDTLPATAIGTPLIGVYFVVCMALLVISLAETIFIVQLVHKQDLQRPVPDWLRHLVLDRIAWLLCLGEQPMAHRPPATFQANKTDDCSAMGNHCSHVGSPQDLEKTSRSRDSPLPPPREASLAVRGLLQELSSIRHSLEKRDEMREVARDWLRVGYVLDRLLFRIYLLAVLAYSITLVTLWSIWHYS
Procedure: Evaluation of the compounds of the present invention was performed by incubating the radiolabeled agent with tissue homogenates known to contain these receptors. By inhibiting the binding with various concentrations of competing ligands the relative potencies of unlabeled analogs were determined. The apparent lipophilicities of the compounds of the invention were estimated from the retention times in reverse-phase HPLC at pH 7.4.

[5] = test system: emesis; settings: literature; cited from earlier work
[6] = Apparent lipophilicity from reverse-phase HPLC at pH 7.4; format: physicochemical; settings: not told
Excerpt: (b) Extrapolated reverse phase capacity factors in MOPS buffer at pH 7.4.

[7] = biological target: T1, 5-HT-3 receptor; format: binding; set-up: from tissue; host or cells: rat entorhinal cortex homogenate / membranes; settings: rat entorhinal cortex
Excerpt: In all FIGS. 1-3, triangles represent total binding, open circles represent non-specific binding, and darkened circles represent specific binding.

[8] = Ki, displacement of 0.64 nM [^125 I]-4 binding, Table 3, rat entorhinal cortex homogenate, HEPES buffer, nine concentrations 0.3 to 300 nM, triplicates
[9] = extrapolated reverse phase capacity factors in MOPS buffer, read-out: log Papp (apparent lipophilicity)

Compound | chromatographic logD [6, 9] | also measured
COc1cc(N)c(Cl)cc1C(=O)N[C@H]1CN2CCC1CC2 [(R)-zacopride, 5-chloro-4-amino-2-methoxy-N-(3-quinuclidinyl)benzamide] | – | affinity for the 5-HT-3 receptor relative to (S)-zacopride [1]: ten times lower affinity; cognitive-enhancing properties [2]: shows cognitive-enhancing properties; block of drug-induced anxiety [3]: able to block drug-induced anxiety
COc1cc(N)c(Cl)cc1C(=O)N[C@@H]1CN2CCC1CC2 [(S)-zacopride, 5-chloro-4-amino-2-methoxy-N-(3-quinuclidinyl)benzamide] | – | Ki ([1]; (S)-form of zacopride): 0.3 nM; Ki [4, 8]: 0.38 nM; antiemetic activity [5]: effective antiemetic agent; block of drug-induced anxiety [3]: inactive
CCCOc1ccc(I)cc1C(=O)N[C@@H]1CN2CCC1CC2 [TDP 9l7] | 2.81 | –
COc1ccc(I)cc1C(=O)N[C@@H]1CN2CCC1CC2 [TDP 915] | 2.15 | –
CCOc1ccc(I)cc1C(=O)N[C@@H]1CN2CCC1CC2 [TDP 916] | 2.38 | –
C=CCOc1ccc(I)cc1C(=O)N[C@@H]1CN2CCC1CC2 [TDP 918] | 2.76 | –
CC(C)Oc1ccc(I)cc1C(=O)N[C@@H]1CN2CCC1CC2 [TDP 919] | 2.52 | –
O=C(N[C@@H]1CN2CCC1CC2)c1cc(I)ccc1OCCF [TDP 920] | 2.15 | –
O=C(N[C@@H]1CN2CCC1CC2)c1cc(I)ccc1OCCCF [TDP 921] | 2.44 | –
COc1ccc(Br)cc1C(=O)N[C@@H]1CN2CCC1CC2 [TDP 922] | 2.02 | –
COc1cc(Br)cc(C(=O)N[C@@H]2CN3CCC2CC3)c1OC [TDP 923] | 1.74 | –
CCOc1cc(Br)cc(C(=O)N[C@@H]2CN3CCC2CC3)c1OC [TDP 924] | 2.14 | –
COc1cc(I)cc(C(=O)N[C@@H]2CN3CCC2CC3)c1OC [TDP 960] | 1.87 | Ki [4, 8]: 1.35 nM
COc1cc(Cl)cc(C(=O)N[C@@H]2CN3CCC2CC3)c1OC/C=C/I [TDP 984] | 2.58 | –
COc1cc(I)cc(C(=O)N[C@H]2CN3CCC2CC3)c1OC [TDP 991, (R)-N-[3-1-Azabicyclo [2.2.2.]octyl]-5-iodo-2,3-dimethoxy-benzamide] | 1.87 | Ki [4, 8]: 19 nM
COc1cc(Cl)cc(C(=O)N[C@@H]2CN3CCC2CC3)c1OCCF [TDP 994] | 1.58 | –

Compound | chromatographic logD [6, 9] | also measured
COc1c(OCCF)cc(Cl)cc1C(=O)N[C@@H]1CN2CCC1CC2 [TDP 999] | 1.7 | –
CCOc1c(OC)cc(I)cc1C(=O)N[C@@H]1CN2CCC1CC2 [TDP 1022] | 2.19 | –
COc1c(I)cc(Cl)cc1C(=O)N[C@@H]1CN2CCC1CC2 [TDP 1040] | – | chromatographic logD [6]: 2.34
C=CCOc1c(I)cc(Cl)cc1C(=O)N[C@@H]1CN2CCC1CC2 [TDP 1046] | 2.63 | –
O=C(N[C@@H]1CN2CCC1CC2)c1cc(Cl)cc(I)c1OCCCF [TDP 1050] | 2.38 | –
C#CCOc1c(I)cc(Cl)cc1C(=O)N[C@@H]1CN2CCC1CC2 [TDP 1053] | 2.57 | –
O=C(N[C@@H]1CN2CCC1CC2)c1cc(Cl)cc(I)c1OCCF [TDP 1056] | 1.95 | –
CCOc1c(I)cc(Cl)cc1C(=O)N[C@@H]1CN2CCC1CC2 [TDP 1059] | 2.47 | –
CC(C)Oc1c(I)cc(Cl)cc1C(=O)N[C@@H]1CN2CCC1CC2 [TDP 1062] | 2.45 | –
CCCOc1c(I)cc(Cl)cc1C(=O)N[C@@H]1CN2CCC1CC2 [TDP 1065] | 2.7 | –
COc1ccc(F)cc1C(=O)N[C@@H]1CN2CCC1CC2 [TDP 1087] | 1.34 | –
COc1cc([125I])cc(C(=O)N[C@@H]2CN3CCC2CC3)c1OC [[^125 I]-4, (S)-N-[3-(1-azabicyclo[2.2.2]octyl)]-2,3-dimethoxy-5-[^125 I]iodobenzamide] | – | Kd [7]: 1.5 nM
CN1[C@@H]2CC[C@H]1C[C@@H](OC(=O)c1cc(Cl)cc(Cl)c1)C2 [bemestron] | – | Ki [4, 8]: 18.3 nM
CCN1CCC[C@H]1CNC(=O)c1cc(I)cc(OC)c1OC [epidepride] | – | Ki [4]: 1040 nM
c1ccc2nc(N3CCNCC3)ccc2c1 [quipazine] | – | Ki [4, 8]: 0.48 nM
